Experimental findings from patent US9796711B2, “Substituted pyrazolo[3,4-b]pyridin-6-carboxylic acids and method of use” (AbbVie S.àr.l., priority 2015, dated 2017) are described below.

Assay [1] concerns the target T1, ΔF508-CFTR (Homo sapiens, UniProt P13569, DEL508-508).
T1 construct: host or cells: CFBE41o-, doxycycline-inducible
Briefly: CFTR cell surface levels using HRP-tagged ΔF508-CFTR expressing CFBE cells, intrinsic corrector capacity. The assay is classed as cell-based. In outline: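 Here the cells express ΔF508-CFTR with horseradish peroxidase inserted in extracellular loop 4, so only rescued channel at the surface gives luminescent signal. Compounds act on their own, 20 h at the reduced temperature of 33 °C; values are percent activity relative to DMSO and a 3 μM corrector.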

For assay [2], the target named is T1, ΔF508-CFTR. Description: CFTR cell surface levels using HRP-tagged ΔF508-CFTR expressing CFBE cells, in the presence of a co-corrector. The assay is classed as cell-based. In outline: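 Cells were seeded with 0.5 μg/mL doxycycline and held 68 h at 37 °C. Test compounds plus 3 μM co-corrector (final 0.1% DMSO) were then added for 20 h at 33 °C. Washed cells received HRP substrate, and luminescence was normalized between DMSO and 3 μM co-corrector controls.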

Setting [3] is: HRP-tagged ΔF508-CFTR expressing CFBE cells, intrinsic corrector capacity (no co-corrector), 33° C., 20 hours.
Where [4] appears, read: HRP-tagged ΔF508-CFTR expressing CFBE cells, intrinsic corrector capacity (no co-corrector), 33° C., 20 hours, read-out: EC50.
Where [5] appears, read: HRP-tagged ΔF508-CFTR expressing CFBE cells, in the presence of 3 μM co-corrector.
The mark [6] stands for this setting: HRP-tagged ΔF508-CFTR expressing CFBE cells, in the presence of 3 μM co-corrector, read-out: EC50.
Setting [7] is: HRP-tagged ΔF508-CFTR CFBE41o- cells, compounds alone (intrinsic corrector capacity), 20 hours at 33° C., positive control 3 μM corrector.
The mark [8] stands for this setting: HRP-tagged ΔF508-CFTR CFBE41o- cells, compounds alone (intrinsic corrector capacity), 20 hours at 33° C., read-out: EC50.

T1 sequence (P13569 with tags, fused parts or gaps DEL508-508): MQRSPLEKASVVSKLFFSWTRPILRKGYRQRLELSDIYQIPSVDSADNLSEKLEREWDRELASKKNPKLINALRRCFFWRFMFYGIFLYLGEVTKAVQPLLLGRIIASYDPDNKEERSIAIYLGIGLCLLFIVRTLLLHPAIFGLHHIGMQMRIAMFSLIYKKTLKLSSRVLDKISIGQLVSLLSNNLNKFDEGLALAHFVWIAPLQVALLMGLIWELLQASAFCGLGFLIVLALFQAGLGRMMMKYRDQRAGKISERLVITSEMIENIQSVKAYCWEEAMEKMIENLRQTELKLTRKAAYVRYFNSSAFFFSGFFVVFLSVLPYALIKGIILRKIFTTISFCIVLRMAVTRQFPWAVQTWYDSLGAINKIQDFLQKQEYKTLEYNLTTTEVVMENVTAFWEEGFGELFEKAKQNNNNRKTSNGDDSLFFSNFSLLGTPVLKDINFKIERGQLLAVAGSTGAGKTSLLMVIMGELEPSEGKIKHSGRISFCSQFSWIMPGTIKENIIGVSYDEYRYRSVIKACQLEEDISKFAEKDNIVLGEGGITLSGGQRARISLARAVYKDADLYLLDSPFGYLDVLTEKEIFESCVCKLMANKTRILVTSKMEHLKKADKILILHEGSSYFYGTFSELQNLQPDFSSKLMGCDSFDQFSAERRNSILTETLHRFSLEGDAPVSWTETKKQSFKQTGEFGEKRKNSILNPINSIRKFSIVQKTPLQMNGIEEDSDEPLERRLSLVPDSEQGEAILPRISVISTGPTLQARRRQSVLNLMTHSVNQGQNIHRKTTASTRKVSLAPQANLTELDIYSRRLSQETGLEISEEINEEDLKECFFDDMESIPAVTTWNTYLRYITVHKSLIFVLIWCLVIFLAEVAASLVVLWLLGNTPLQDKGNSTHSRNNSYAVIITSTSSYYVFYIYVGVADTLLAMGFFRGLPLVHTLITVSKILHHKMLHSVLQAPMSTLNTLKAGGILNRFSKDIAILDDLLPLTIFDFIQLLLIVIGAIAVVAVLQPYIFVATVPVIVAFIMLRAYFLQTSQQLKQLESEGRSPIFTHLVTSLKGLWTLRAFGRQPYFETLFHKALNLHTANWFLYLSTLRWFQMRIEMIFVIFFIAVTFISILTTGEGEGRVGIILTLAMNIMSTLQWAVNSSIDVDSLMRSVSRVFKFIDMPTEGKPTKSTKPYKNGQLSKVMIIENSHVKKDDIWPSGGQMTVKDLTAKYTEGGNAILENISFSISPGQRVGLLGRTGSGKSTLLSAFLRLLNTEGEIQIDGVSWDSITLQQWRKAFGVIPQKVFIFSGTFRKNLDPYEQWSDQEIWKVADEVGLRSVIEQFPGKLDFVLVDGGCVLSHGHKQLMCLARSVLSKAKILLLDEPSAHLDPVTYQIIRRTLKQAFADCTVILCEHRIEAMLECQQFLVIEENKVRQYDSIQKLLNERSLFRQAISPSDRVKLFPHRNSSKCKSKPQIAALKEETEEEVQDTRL

On to `CC(C)c1nn(-c2ccnc(N3CCOCC3)c2)c2nc(C(=O)O)cc(-c3ccc(N4CCC(C#N)CC4)nc3)c12` [compound 437, 4-[6-(4-cyanopiperidin-1-yl)pyridin-3-yl]-1-[2-(morpholin-4-yl)pyridin-4-yl]-3-(propan-2-yl)-1H-pyrazolo[3,4-b]pyridine-6-carboxylic acid], for which the “% Activation” value stood at 247.47% on ΔF508-CFTR [1] (setting [3]) and 419.53% at ΔF508-CFTR [2] (setting [5]). The figures for the EC50 at ΔF508-CFTR [1] (setting [4]) and at ΔF508-CFTR [2] (setting [6]) were 1230 nM and 795 nM, respectively.

`O=C(O)c1cc(N2CC(N3CCCCC3)C2)c2c(C3CCC3)nn(-c3ccccc3)c2n1` [compound 466, 3-cyclobutyl-1-phenyl-4-[3-(piperidin-1-yl)azetidin-1-yl]-1H-pyrazolo[3,4-b]pyridine-6-carboxylic acid]: the “% Activation” value at ΔF508-CFTR [1] (setting [3]) is 116.25%; on ΔF508-CFTR [2] (setting [5]), 271.1%. Further, the EC50 is 2330 nM on ΔF508-CFTR [1] (setting [4]) and 1290 nM on ΔF508-CFTR [2] (setting [6]).

As to `CC(C)c1nn(-c2cccc(F)c2)c2nc(C(=O)O)cc(-c3ccc(N4CCC(C#N)CC4)nc3)c12` [compound 285, 4-[6-(4-cyanopiperidin-1-yl)pyridin-3-yl]-1-(3-fluorophenyl)-3-(propan-2-yl)-1H-pyrazolo[3,4-b]pyridine-6-carboxylic acid], the “% Activation” value at ΔF508-CFTR [1] (setting [7]) is listed as 255.73%; on ΔF508-CFTR [2] (setting [5]), 428%. Further, the EC50 on ΔF508-CFTR [1] (setting [8]) is 655 nM; at ΔF508-CFTR [2] (setting [6]), 261 nM.

Consider `Cc1nn(-c2ccccc2)c2nc(C(=O)O)cc(-c3ccc(NC4COC4)cc3)c12` [compound 112, 3-methyl-4-{4-[(oxetan-3-yl)amino]phenyl}-1-phenyl-1H-pyrazolo[3,4-b]pyridine-6-carboxylic acid], for which the figures for the “% Activation” value at ΔF508-CFTR [1] (setting [7]) and on ΔF508-CFTR [2] (setting [5]) were 200.55% and 378.1%, respectively. Besides, the EC50 at ΔF508-CFTR [1] (setting [8]) stood at 2470 nM; on ΔF508-CFTR [2] (setting [6]) it was 2370 nM.

As for `Cc1nn(-c2ccccc2)c2nc(C(=O)O)cc(N3CC4(CCCOC4)C3)c12` [compound 308, 3-methyl-4-(6-oxa-2-azaspiro[3.5]nonan-2-yl)-1-phenyl-1H-pyrazolo[3,4-b]pyridine-6-carboxylic acid], the “% Activation” value at ΔF508-CFTR [1] (setting [7]) is 59.78%; on ΔF508-CFTR [2] (setting [5]) it was 221.85%. The EC50 on ΔF508-CFTR [1] (setting [8]) and on ΔF508-CFTR [2] (setting [6]) was 2510 nM each time.

As to `CC(C)c1nn(-c2cccc(N3CCC(F)C3)c2)c2nc(C(=O)O)cc(-c3ccc(N4CCOCC4)cc3)c12` (centres unmarked) [compound 165, 1-[3-(3-fluoropyrrolidin-1-yl)phenyl]-4-[4-(morpholin-4-yl)phenyl]-3-(propan-2-yl)-1H-pyrazolo[3,4-b]pyridine-6-carboxylic acid], the “% Activation” value at ΔF508-CFTR [1] (setting [7]) is recorded as 350.4%; on ΔF508-CFTR [2] (setting [5]) it was 533.35%. In addition, the EC50 on ΔF508-CFTR [1] (setting [8]) was 794 nM; at ΔF508-CFTR [2] (setting [6]), 515 nM.

On to `N#CC1CCN(c2ccc(-c3cc(C(=O)O)nc4c3c([C@H]3C[C@@H](F)C3)nn4-c3ccccc3)cn2)CC1` [compound 432, 4-[6-(4-cyanopiperidin-1-yl)pyridin-3-yl]-3-(cis-3-fluorocyclobutyl)-1-phenyl-1H-pyrazolo[3,4-b]pyridine-6-carboxylic acid], for which the “% Activation” value stood at 197.97% at ΔF508-CFTR [1] (setting [3]) and 388.23% at ΔF508-CFTR [2] (setting [5]). The half-maximal effective concentration (EC50) was 561 nM at ΔF508-CFTR [1] (setting [4]) and 298 nM at ΔF508-CFTR [2] (setting [6]).

In the case of `CC(=O)Nc1ccc(-c2cc(C(=O)O)nc3c2c(C(C)C)nn3C2CCCCC2)cc1` [compound 171, 4-(4-acetamidophenyl)-1-cyclohexyl-3-(propan-2-yl)-1H-pyrazolo[3,4-b]pyridine-6-carboxylic acid], the “% Activation” value stood at 199.67% on ΔF508-CFTR [1] (setting [7]) and 450.73% on ΔF508-CFTR [2] (setting [5]). Also, the values for the EC50 on ΔF508-CFTR [1] (setting [8]) and at ΔF508-CFTR [2] (setting [6]) were 1190 nM and 1070 nM, respectively.

Take `CC(C)c1nn(-c2cc(F)cc(F)c2)c2nc(C(=O)O)cc(-c3ccc(N4CCC(C#N)CC4)cc3)c12` [compound 282, 4-[4-(4-cyanopiperidin-1-yl)phenyl]-1-(3,5-difluorophenyl)-3-(propan-2-yl)-1H-pyrazolo[3,4-b]pyridine-6-carboxylic acid]: the “% Activation” value at ΔF508-CFTR [1] (setting [7]) was found to be 269.33%; on ΔF508-CFTR [2] (setting [5]), 476.23%. The EC50 on ΔF508-CFTR [1] (setting [8]) was found to be 492 nM; at ΔF508-CFTR [2] (setting [6]) it was 341 nM.

Consider `CC(C)c1nn(-c2cccc(C(F)(F)F)c2)c2nc(C(=O)O)cc(-c3ccc(N4CCC(C#N)CC4)nc3)c12` [compound 260, 4-[6-(4-cyanopiperidin-1-yl)pyridin-3-yl]-3-(propan-2-yl)-1-[3-(trifluoromethyl)phenyl]-1H-pyrazolo[3,4-b]pyridine-6-carboxylic acid], for which the “% Activation” value is reported as 326.4% at ΔF508-CFTR [1] (setting [7]) and 554.15% at ΔF508-CFTR [2] (setting [5]). Besides, the EC50 on ΔF508-CFTR [1] (setting [8]) was found to be 784 nM; on ΔF508-CFTR [2] (setting [6]), 517 nM.

As to `COCCN1CCN(c2cc(C(=O)O)nc3c2c(C2CCC2)nn3-c2ccccc2)CC1` [compound 571, 3-cyclobutyl-4-[4-(2-methoxyethyl)piperazin-1-yl]-1-phenyl-1H-pyrazolo[3,4-b]pyridine-6-carboxylic acid], the EC50 was determined as 812 nM on ΔF508-CFTR [1] and 328 nM at ΔF508-CFTR [2]. The figures for the “% Activation” value at ΔF508-CFTR [1] (setting [3]) and on ΔF508-CFTR [2] (setting [5]) were 189.6% and 334.05%, respectively.

On to `COCCN1CCN(C2CCN(c3cc(C(=O)O)nc4c3c(C3CCC3)nn4-c3ccccc3)CC2)CC1` [compound 694, 3-cyclobutyl-4-{4-[4-(2-methoxyethyl)piperazin-1-yl]piperidin-1-yl}-1-phenyl-1H-pyrazolo[3,4-b]pyridine-6-carboxylic acid], for which the figures for the “% Activation” value at ΔF508-CFTR [1] (setting [3]) and on ΔF508-CFTR [2] (setting [5]) were 177.4% and 421.9%, respectively. The figures for the EC50 on ΔF508-CFTR [1] (setting [4]) and at ΔF508-CFTR [2] (setting [6]) were 487 nM and 535 nM, respectively.

Turning to `Cc1nn(-c2ccccc2)c2nc(C(=O)O)cc(N3CCC4(CCCO4)C3)c12` (centres unmarked) [compound 311, 3-methyl-4-(1-oxa-7-azaspiro[4.4]nonan-7-yl)-1-phenyl-1H-pyrazolo[3,4-b]pyridine-6-carboxylic acid], the “% Activation” value is 53.7% at ΔF508-CFTR [1] (setting [7]) and 195.5% at ΔF508-CFTR [2] (setting [5]). Besides, the figures for the EC50 on ΔF508-CFTR [1] (setting [8]) and at ΔF508-CFTR [2] (setting [6]) were 2510 nM and 2140 nM, respectively.

As for `COCC1(C)CN(c2cc(C(=O)O)nc3c2c(C2CCC2)nn3-c2ccccc2)C1` [compound 521, 3-cyclobutyl-4-[3-(methoxymethyl)-3-methylazetidin-1-yl]-1-phenyl-1H-pyrazolo[3,4-b]pyridine-6-carboxylic acid], the entries for the “% Activation” value on ΔF508-CFTR [1] (setting [3]) and on ΔF508-CFTR [2] (setting [5]) were 58.57% and 216.55%, respectively. For the same compound, the results for the EC50 on ΔF508-CFTR [1] (setting [4]) and at ΔF508-CFTR [2] (setting [6]) were 488 nM and 290 nM, respectively.

With `CN(C)CC1CN(c2cc(C(=O)O)nc3c2c(C2CCC2)nn3-c2ccccc2)CCO1` (centres unmarked) [compound 562, 3-cyclobutyl-4-{2-[(dimethylamino)methyl]morpholin-4-yl}-1-phenyl-1H-pyrazolo[3,4-b]pyridine-6-carboxylic acid], the “% Activation” value at ΔF508-CFTR [1] (setting [3]) is recorded as 154.7%; on ΔF508-CFTR [2] (setting [5]) it was 347%. The EC50 at ΔF508-CFTR [1] (setting [4]) is 1770 nM; on ΔF508-CFTR [2] (setting [6]) it was 921 nM.

For the compound `COC1CCN(c2cc(C(=O)O)nc3c2c(C(C)C)nn3-c2ccc(F)cc2)CC1` [compound 393, 1-(4-fluorophenyl)-4-(4-methoxypiperidin-1-yl)-3-(propan-2-yl)-1H-pyrazolo[3,4-b]pyridine-6-carboxylic acid], the “% Activation” value on ΔF508-CFTR [1] (setting [7]) worked out at 258.8%; on ΔF508-CFTR [2] (setting [5]), 454.3%. Also, the EC50 at ΔF508-CFTR [1] (setting [8]) came to 558 nM; at ΔF508-CFTR [2] (setting [6]), 314 nM.

Take `CC1CN(c2ccc(-c3cc(C(=O)O)nc4c3c(C(C)C)nn4C3CCCCC3)cn2)CC(C)O1` (centres unmarked) [compound 196, 1-cyclohexyl-4-[6-(2,6-dimethylmorpholin-4-yl)pyridin-3-yl]-3-(propan-2-yl)-1H-pyrazolo[3,4-b]pyridine-6-carboxylic acid]: the results for the “% Activation” value at ΔF508-CFTR [1] (setting [7]) and at ΔF508-CFTR [2] (setting [5]) were 251.45% and 520.8%, respectively. Also, the EC50 came to 555 nM on ΔF508-CFTR [1] (setting [8]) and 596 nM at ΔF508-CFTR [2] (setting [6]).

`CC(C)N1CNC(=O)C12CCN(c1cc(C(=O)O)nc3c1c(C1CCC1)nn3-c1ccccc1)CC2` [compound 469, 3-cyclobutyl-4-[4-oxo-1-(propan-2-yl)-1,3,8-triazaspiro[4.5]decan-8-yl]-1-phenyl-1H-pyrazolo[3,4-b]pyridine-6-carboxylic acid]: the “% Activation” value worked out at 198.95% at ΔF508-CFTR [1] (setting [3]) and 360.3% on ΔF508-CFTR [2] (setting [5]). The values for the EC50 at ΔF508-CFTR [1] (setting [4]) and at ΔF508-CFTR [2] (setting [6]) were 1120 nM and 716 nM, respectively.

Turning to `Cc1nn(-c2ccccc2)c2nc(C(=O)O)cc(N3CCCC4(CC4)C3)c12` [compound 310, 4-(5-azaspiro[2.5]octan-5-yl)-3-methyl-1-phenyl-1H-pyrazolo[3,4-b]pyridine-6-carboxylic acid], the “% Activation” value at ΔF508-CFTR [1] (setting [7]) is on record as 88.73%; on ΔF508-CFTR [2] (setting [5]), 199.65%. Moreover, the EC50 on ΔF508-CFTR [1] (setting [8]) is 1890 nM; on ΔF508-CFTR [2] (setting [6]), 1610 nM.

For the compound `CCN(CC)CCN1CCN(c2cc(C(=O)O)nc3c2c(C(C)C)nn3-c2ccc(F)cc2)CC1` [compound 800, 4-[4-[2-(diethylamino)ethyl]piperazin-1-yl}-1-(4-fluorophenyl)-3-(propan-2-yl)-1H-pyrazolo[3,4-b]pyridine-6-carboxylic acid], the “% Activation” value was found to be 45.22% at ΔF508-CFTR [1] (setting [3]) and 214.8% at ΔF508-CFTR [2] (setting [5]). The EC50 came to 1670 nM on ΔF508-CFTR [1] (setting [4]) and 1490 nM on ΔF508-CFTR [2] (setting [6]).

Usually EC50 stands for the concentration at which the effect is half-maximal.
